For this assay, the system named is adenocarcinoma of the right ovary. The assay can be described thus: Example 3: patient with ovarian adenocarcinoma treated with rhodamine 6G. The class given is in vivo, human. The following applies: Patient T, 54. The source says: Patient T. Diagnosis: adenocarcinoma of the right ovary. Metastases in the liver. A hysterectomy had been carried out 4 years before. There was a recurrence of the cancer after a year. The patient complained of pain in the pelvis and difficulty in urination. […] The patient's condition was moderately severe; pale skin. […] The course of treatment lasted 3 months. During the treatment the tumor decreased in size to 1.2×0.9×0.3 cm. […] Blood analyses against the treatment background became normal over 2 months. A full course of treatment with the preparation was carried out over 6 months. During the course of the treatment the tumor in the region of the bladder and rectum disappeared.

Regarding “9-(2-ethoxycarbonyl)phenyl)-3,6-bis(ethylamino)2,7-dimethylxanthyl chloride [rhodamine 6G]”, the body weight result (after treatment) is listed as “regained weight”. Also, the “tumor in the region of the bladder and rectum” value (full course over 6 months) is “disappeared”. Moreover, the “blood analyses against the treatment background” value (over 2 months) is “became normal”. The “stools and feeling of pain” value (second week after start) was “the stools became normal and the feeling of pain disappeared”.
